Experimental data published in BigSolDB 2.1.

CCOC(=O)[C@@H](N)CCc1ccccc1.Cl
solubility (mole fraction)
Conditions | 283.15 K | 288.15 K | 293.15 K | 298.15 K | 303.15 K | 313.15 K | 323.15 K
in 1,4-dioxane | – | 0.00221 | 0.00266 | – | 0.00381 | 0.00845 | 0.0142
in 2-butanone | 0.00022 | – | 0.00031 | – | 0.0004 | 0.00073 | 0.0013
in acetone | 0.00068 | – | 0.00117 | – | 0.00182 | 0.00297 | 0.00505
in dichloromethane | 0.0172 | 0.0233 | 0.0303 | 0.0386 | 0.0489 | – | –
in ethanol | 0.031 | – | 0.0393 | – | 0.0505 | 0.0666 | 0.0867
in isobutanol | 0.0101 | – | 0.014 | – | 0.0203 | 0.0311 | 0.0472
in isopropanol | 0.00726 | – | 0.0096 | – | 0.0135 | 0.0192 | 0.0286
in methyl acetate | 4e-05 | – | 5e-05 | – | 0.00012 | 0.00024 | 0.00034
in n-butanol | 0.0128 | – | 0.0163 | – | 0.022 | 0.0253 | 0.0277
in n-pentanol | 0.0161 | – | 0.0215 | – | 0.0294 | 0.0427 | 0.0595
in n-propanol | 0.019 | – | 0.0262 | – | 0.0353 | 0.0487 | 0.0679
in sec-butanol | 0.00416 | – | 0.00614 | – | 0.00846 | 0.013 | 0.0257
